Activity calls are given as the source filed them. The rule behind the calls is not given here. Numbered stars: 1 amine (or outer) side, 2 acyl side, 3 side chain; on linkers, the order of the positions; unused ones are H or OH. Square brackets hold non-standard residues; d marks the D form. Peptide text beside a SMILES is read from it. * marks the point of attachment. X2 = CC(C)(C(=O)*)n1cc(-c2cccc(C(F)(F)F)c2)nn1; X1 = CC(=O)CCCC[C@H](N[*:1])C(=O)[*:2]; Aib = CC(C)(N)C(=O)O
Tests used:
[1] = Inhibition of VDAC mediated mitochondrial Ca2+ release in HEK293 cells transfected with mitoGCaMP2; assay type: cell-based; settings: Homo sapiens
HEK293 [2] = experiment: Inhibition of VDAC in mitochondria of HEK293 cells transfected with mitoGCaMP2 assessed as calcium efflux from mitochondria by measuring decrease in mitoGCaMP2 fluorescence at 6 mM by DAPI staining confocal imaging analysis; settings: Homo sapiens, time 30.0 min
HEK293 [3] = experiment: Inhibition of VDAC in mitochondria of HEK293 cells transfected with mitoGCaMP2 assessed as calcium efflux from mitochondria by measuring decrease in mitoGCaMP2 fluorescence at 33 uM by DAPI staining confocal imaging analysis; settings: Homo sapiens
HEK293 [4] = experiment: Inhibition of VDAC in mitochondria of HEK293 cells transfected with mitoGCaMP2 assessed as calcium efflux by measuring mitoGCaMP2 fluorescence in cytoplasm at 33 uM by DAPI staining confocal imaging analysis; assay type: subcellular; settings: Homo sapiens
[5] = Metabolic stability in rat serum assessed as parent compound remaining at 66.6 uM after 24 hr incubation by LC-MS analysis relative to control; assay type: ADME, cell-free; settings: read-out: Stability
Mus musculus [6] = species on record: Mus musculus; experiment: Inhibition of demyelination in sciatic nerve explant C57BL6/J mouse model assessed as reduction in fiber damage level in serum free medium at 3 uM measured after 24 hrs by coherent anti Stokes raman scattering assay; assay type: functional
Mus musculus [7] = species on record: Mus musculus; experiment: Inhibition of demyelination in sciatic nerve explant C57BL6/J mouse model assessed as reduction in fiber damage level in serum containing medium at 3 uM measured after 24 hrs by coherent anti Stokes raman scattering assay; assay type: functional
Homo sapiens = species on record: Homo sapiens; experiment: Inhibition of VDAC (unknown origin) mediated mitochondrial Ca2+ release at 100 uM
[8] = Metabolic stability in rat serum assessed as parent compound remaining at 66.6 uM after 1 hr incubation by LC-MS analysis relative to control; assay type: ADME, cell-free; settings: read-out: Stability

CCCC[C@H](NC(=O)[C@H](CCC(N)=O)NC(=O)[C@@H]1CCCN1C(=O)[C@@H]1CCCN1C(=O)[C@H](CCCNC(=N)N)NC(=O)[C@H](CCCNC(=N)N)NC(=O)[C@H](CCCNC(=N)N)NC(=O)[C@H](CCC(N)=O)NC(=O)[C@H](CCCNC(=N)N)NC(=O)[C@H](CCCNC(=N)N)NC(=O)[C@H](CCCCN)NC(=O)[C@H](CCCCN)NC(=O)[C@H](CCCNC(=N)N)NC(=O)CNC(C)=O)C(=O)N[C@H](C(=O)N[C@@H](C)C(=O)N[C@@H](C)C(=O)N[C@@H](CCC(N)=O)C(=O)N[C@@H](CC(C)C)C(=O)N[C@@H](CC(C)C)C(=O)N[C@@H](C)C(=O)N[C@@H](Cc1ccc(O)cc1)C(=O)N[C@@H](Cc1ccc(O)cc1)C(=O)N[C@@H](Cc1ccccc1)C(=O)N[C@H](C(=O)N[C@@H](CCC(=O)O)C(=O)N[C@@H](CC(C)C)C(=O)N[C@@H](CCCCN)C(N)=O)[C@@H](C)O)[C@@H](C)CC
IC50 [1]: 13.9 µM

CC/C=C\C[C@H]1C(=O)CC[C@@H]1CC(=O)OC
inhibition (HEK293 [2]): Active | inhibition (HEK293 [3]): Active | inhibition (HEK293 [4]): Active

CC(=O)N[C@@H](C)C(=O)N[C@@H](CCC(N)=O)C(=O)N[C@@H](CC(C)C)C(=O)N[C@@H](CC(C)C)C(=O)NC(C)(C)C(=O)N[C@@H](Cc1ccc(O)cc1)C(=O)N[C@@H](Cc1ccc(O)cc1)C(=O)N[C@@H](Cc1ccccc1)C(=O)N[C@H](C(=O)N[C@@H](CCC(=O)O)C(=O)N[C@@H](CC(C)C)C(=O)N[C@@H](CCCCN)C(N)=O)[C@@H](C)O (Ac-AQLL[Aib]YYFTELK-NH2)
remaining at 24 h, 66.6 µM [5]: 65%

CC(=O)N[C@@H](C)C(=O)NC(C)(C)C(=O)N[C@@H](C)C(=O)NC(C)(C)C(=O)N[C@@H](C)C(=O)N[C@@H](CCC(N)=O)C(=O)N[C@@H](CC(C)C)C(=O)N[C@@H](CC(C)C)C(=O)NC(C)(C)C(=O)N[C@@H](Cc1ccc(O)cc1)C(=O)N[C@@H](Cc1ccc(O)cc1)C(=O)N[C@@H](Cc1ccccc1)C(=O)N[C@H](C(=O)N[C@@H](CCC(=O)O)C(=O)N[C@@H](CC(C)C)C(=O)N[C@@H](CCCCN)C(N)=O)[C@@H](C)O (Ac-A[Aib]A[Aib]AQLL[Aib]YYFTELK-NH2)
remaining at 24 h, 66.6 µM [5]: 75%

CC(=O)N[C@@H](C)C(=O)NC(C)(C)C(=O)N[C@@H](C)C(=O)NC(C)(C)C(=O)N[C@@H](C)C(=O)N[C@@H](CCC(N)=O)C(=O)N[C@@H](CC(C)C)C(=O)N[C@@H](CC(C)C)C(=O)NC(C)(C)C(=O)N[C@@H](Cc1ccc(O)cc1)C(=O)N[C@@H](Cc1ccc(O)cc1)C(=O)N[C@@H](Cc1ccccc1)C(=O)N[C@H](C(=O)N[C@@H](CCC(=O)O)C(=O)N[C@@H](CC(C)C)C(=O)N[C@@H](CCCCN)C(=O)NCC(=O)N[C@@H](CCCNC(=N)N)C(=O)N[C@@H](CCCCN)C(=O)N[C@@H](CCCCN)C(=O)N[C@@H](CCCNC(=N)N)C(=O)N[C@@H](CCCNC(=N)N)C(=O)N[C@@H](CCC(N)=O)C(=O)N[C@@H](CCCNC(=N)N)C(=O)N[C@@H](CCCNC(=N)N)C(=O)N[C@@H](CCCNC(=N)N)C(=O)N1CCC[C@H]1C(=O)N1CCC[C@H]1C(=O)N[C@@H](CCC(N)=O)C(N)=O)[C@@H](C)O (Ac-A[Aib]A[Aib]AQLL[Aib]YYFTELKGRKKRRQRRRPPQ-NH2)
inhibition (Mus musculus [6]): Active | inhibition (Mus musculus [7]): Active

CC[C@H](C)[C@H](NC(=O)[C@@H](N)CCCCC(C)=O)C(=O)N[C@@H](C)C(=O)N[C@@H](C)C(=O)N[C@@H](CCC(N)=O)C(=O)N[C@@H](CC(C)C)C(=O)N[C@@H](CC(C)C)C(=O)N[C@@H](C)C(=O)N[C@@H](Cc1ccc(O)cc1)C(=O)N[C@@H](Cc1ccc(O)cc1)C(=O)N[C@@H](Cc1ccccc1)C(=O)N[C@H](C(=O)N[C@@H](CCC(=O)O)C(=O)N[C@@H](CC(C)C)C(=O)N[C@@H](CCCCN)C(=O)NCC(=O)N[C@@H](CCCNC(=N)N)C(=O)N[C@@H](CCCCN)C(=O)N[C@@H](CCCCN)C(=O)N[C@@H](CCCNC(=N)N)C(=O)N[C@@H](CCCNC(=N)N)C(=O)N[C@@H](CCC(N)=O)C(=O)N[C@@H](CCCNC(=N)N)C(=O)N[C@@H](CCCNC(=N)N)C(=O)N[C@@H](CCCNC(=N)N)C(=O)N1CCC[C@H]1C(=O)N1CCC[C@H]1C(=O)N[C@@H](CCC(N)=O)C(N)=O)[C@@H](C)O (H-[X1]IAAQLLAYYFTELKGRKKRRQRRRPPQ-NH2)
inhibition (Homo sapiens): Active | inhibition (HEK293 [3]): Active | inhibition (HEK293 [4]): Active | IC50 [1]: 15.6 µM

C[C@H](NC(=O)C(C)(C)n1cc(-c2cccc(C(F)(F)F)c2)nn1)C(=O)N[C@@H](CCC(N)=O)C(=O)N[C@@H](Cc1c[nH]c2ccccc12)C(=O)N[C@@H](Cc1c[nH]c2ccccc12)C(=O)NC(C)(C)C(=O)N[C@@H](Cc1ccc(O)cc1)C(=O)N[C@@H](Cc1ccc(O)cc1)C(=O)N[C@@H](Cc1ccccc1)C(=O)N[C@H](C(=O)N[C@@H](CCC(=O)O)C(=O)N[C@@H](Cc1c[nH]c2ccccc12)C(=O)N[C@@H](CCCCN)C(=O)NCC(=O)N[C@@H](CCCNC(=N)N)C(=O)N[C@@H](CCCCN)C(=O)N[C@@H](CCCCN)C(=O)N[C@@H](CCCNC(=N)N)C(=O)N[C@@H](CCCNC(=N)N)C(=O)N[C@@H](CCC(N)=O)C(=O)N[C@@H](CCCNC(=N)N)C(=O)N[C@@H](CCCNC(=N)N)C(=O)N[C@@H](CCCNC(=N)N)C(=O)N1CCC[C@H]1C(=O)N1CCC[C@H]1C(=O)N[C@@H](CCC(N)=O)C(N)=O)[C@@H](C)O (X2-AQWW[Aib]YYFTEWKGRKKRRQRRRPPQ-NH2)
inhibition (Mus musculus [6]): Active | inhibition (Mus musculus [7]): Active

Ac-AQLLAYYFTELK-NH2
remaining at 1 h, 66.6 µM [8]: 8%

Ac-AQWWAYYFTEWK-NH2
IC50 [1]: 3.6 µM

Ac-AQWWAYYFTEWKGRKKRRQRRRPPQ-NH2
inhibition (Mus musculus [6]): Active

Source: ChEMBL document CHEMBL5126620, “Mapping the N-Terminal Hexokinase-I Binding Site onto Voltage-Dependent Anion Channel-1 To Block Peripheral Nerve Demyelination” (J Med Chem, 2022)
